Read-outs that look alike come from different tables or passages of the source.
Tests used:
[1] = test system: smallflower umbrella sedge; experiment: Test C flooded paddy test; type: in vivo, Cyperus difformis; details: for pest or weed control at 62 g/ha / pest or weed control at 125 g/ha / pest or weed control at 250 g/ha / pest or weed control at 500 g/ha: Cyperus difformis; for pest or weed control at 500 g/ha / Plant response rating, Sedge, Umbrella: 500 g ai/ha
[2] = test system: barnyardgrass; experiment: Test C flooded paddy test; type: in vivo, Echinochloa crus-galli; details: for pest or weed control at 62 g/ha / pest or weed control at 125 g/ha / pest or weed control at 250 g/ha / pest or weed control at 500 g/ha: Echinochloa crus-galli; for pest or weed control at 500 g/ha / Plant response rating, Barnyardgrass: 500 g ai/ha
How it was run: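 Scoring by eye, 12–14 days post-treatment, greenhouse-held plants vs. controls; 0 no effect, 100 complete control. Sprayed at 1–4 leaves (2–18 cm); paddy barnyardgrass at 2 leaves, flooded.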

[3] = test system: rice; experiment: Test B pre-/postemergence herbicide test; type: in vivo, Oryza sativa; details: for plant injury at 500 g/ha / plant injury at 125 g/ha: Oryza sativa, pre-emergence, 336 h
How it was run: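 Seeds were planted and treated preemergence with compounds formulated in a non-phytotoxic solvent mixture containing surfactant, while plants at the 1- to 4-leaf stage (2 to 18 cm) received postemergence sprays. Flooded paddy plants were grown to the 2-leaf stage. After 13 to 15 days in a greenhouse, injury was visually rated 0–100 against untreated controls.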

[4] = 62 g ai/ha, scale 0 to 100 (0 no effect, 100 complete control), read-out: Sedge, Umbrella plant response rating
[5] = visual rating after 12 to 14 days, scale 0 to 100 (0 no effect, 100 complete control), read-out: Plant response rating, Sedge, Umbrella
[6] = 62 g ai/ha, scale 0 to 100 (0 no effect, 100 complete control), read-out: Barnyardgrass plant response rating
[7] = visual rating after 12 to 14 days, scale 0 to 100 (0 no effect, 100 complete control), read-out: Plant response rating, Barnyardgrass
[8] = preemergence, 125 g ai/ha, 0 to 100 scale, 0 is no effect, 100 is complete control
[9] = 62 g ai/ha, scale 0 to 100 (0 no effect, 100 complete control)
[10] = 125 g ai/ha, scale of 0 to 100, 0 is no effect, 100 is complete control
[11] = 250 g ai/ha, scale of 0 to 100, 0 is no effect, 100 is complete control
[12] = visual rating after 12 to 14 days, scale 0 to 100 (0 no effect, 100 complete control)
[13] = 125 g ai/ha, 0 = no effect, 100 = complete control, read-out: Rice plant response rating (0 to 100 scale)
[14] = 500 g ai/ha, visual rating, 0 = no effect, 100 = complete control, read-out: Plant response rating, Rice
[15] = 125 g ai/ha, scale 0 to 100 (0 no effect, 100 complete control), read-out: Sedge, Umbrella plant response rating
[16] = 250 g ai/ha, scale of 0 to 100, 0 is no effect, 100 is complete control, read-out: Sedge, Umbrella plant response rating
[17] = 125 g ai/ha, scale 0 to 100 (0 no effect, 100 complete control), read-out: Barnyardgrass plant response rating
[18] = 250 g ai/ha, scale of 0 to 100, 0 is no effect, 100 is complete control, read-out: Barnyardgrass plant response rating
[19] = 125 g ai/ha, 0 = no effect, 100 = complete control, preemergence
[20] = 500 g ai/ha, visual rating, 0 = no effect, 100 = complete control, preemergence
[21] = 125 g ai/ha, scale 0 to 100 (0 no effect, 100 complete control)

Compound	Sedge, Umbrella plant response rating [1, 11]	Plant response rating, Sedge, Umbrella [1, 12]	Barnyardgrass plant response rating [2, 9]	Barnyardgrass plant response rating [2, 11]	Plant response rating, Barnyardgrass [2, 12]	Sedge, Umbrella plant response rating ([1]; 62 g ai/ha, scale 0 to 100)	Sedge, Umbrella plant response rating [1, 21]	Barnyardgrass plant response rating [2, 21]	also measured
CCn1nc(C(C)(C)C)cc1C(=O)Nc1cccc(C(=O)NCC(F)(F)F)c1 [Compound 43, 3-(1,1-dimethylethyl)-1-ethyl-N-[3-[[(2,2,2-trifluoroethyl)amino]carbonyl]-phenyl]-1H-pyrazole-5-carboxamide]									pest or weed control at 62 g/ha [1, 4]: 30%; pest or weed control at 125 g/ha ([1]; 125 g ai/ha, scale of 0 to 100, 0 is no effect, 100 is complete control, read-out: Sedge, Umbrella plant response rating): 50%; pest or weed control at 250 g/ha ([1]; 250 g ai/ha, visual rating after 12 to 14 days, scale 0 to 100 (0 no effect, 100 complete control), read-out: Plant response rating, Sedge, Umbrella): 70%; pest or weed control at 500 g/ha [1, 5]: 80%; pest or weed control at 62 g/ha [2, 6]: 0%; pest or weed control at 125 g/ha ([2]; 125 g ai/ha, scale of 0 to 100, 0 is no effect, 100 is complete control, read-out: Barnyardgrass plant response rating): 0%; pest or weed control at 250 g/ha ([2]; 250 g ai/ha, visual rating after 12 to 14 days, scale 0 to 100 (0 no effect, 100 complete control), read-out: Plant response rating, Barnyardgrass): 40%; pest or weed control at 500 g/ha [2, 7]: 50%
CCn1nc(C(C)(C)C)cc1C(=O)Nc1cccc(C(=O)NOC)c1 [Compound 67]	75	75	0	10	25				Plant response rating, Rice [3, 8]: 0; Sedge, Umbrella plant response rating [1, 9]: 50; Sedge, Umbrella plant response rating [1, 10]: 50; Barnyardgrass plant response rating [2, 10]: 0
CCOC(=O)c1cccc(NC(=O)c2cc(C(C)(C)C)nn2CCF)c1 [Compound 79]	80	85	10	25	80				Sedge, Umbrella plant response rating [1, 9]: 75; Sedge, Umbrella plant response rating [1, 10]: 75; Barnyardgrass plant response rating [2, 10]: 25
C=CCn1nc(C(C)(C)C)cc1C(=O)Nc1cccc(C(C)=NO)c1 [Compound 117]	75	80	10	50	50				Plant response rating, Rice [3, 8]: 20; Sedge, Umbrella plant response rating [1, 9]: 40; Sedge, Umbrella plant response rating [1, 10]: 55; Barnyardgrass plant response rating [2, 10]: 20
CCn1nc(C(C)(C)C)cc1C(=O)Nc1cc(C(=O)OC)ccn1 [Compound 151, methyl 2-[[[3-(1,1-dimethylethyl)-1-ethyl-1H-pyrazol-5-yl]carbonyl]amino]-4-pyridinecarboxylate]									plant injury at 500 g/ha ([3]; 500 g ai/ha, visual rating 0-100, 0 no effect, 100 complete control, read-out: Plant response rating, Rice): 0%; plant injury at 125 g/ha ([3]; preemergence, 125 g ai/ha, 0 to 100 scale, 0 is no effect, 100 is complete control, read-out: Plant response rating, Rice): 0%
CCn1nc(C(C)(C)C)cc1C(=O)Nc1ccc(F)c(C(=O)N(C)C)c1 [Compound 236, N-[3-[(dimethylamino)carbonyl]-4-fluorophenyl]-3-(1,1-dimethylethyl)-1-ethyl-1H-pyrazole-5-carboxamide]									plant injury at 125 g/ha [3, 13]: 40%; plant injury at 500 g/ha [3, 14]: 60%; pest or weed control at 62 g/ha [1, 4]: 0%; pest or weed control at 125 g/ha [1, 15]: 20%; pest or weed control at 250 g/ha [1, 16]: 45%; pest or weed control at 500 g/ha [1, 5]: 55%; pest or weed control at 62 g/ha [2, 6]: 0%; pest or weed control at 125 g/ha [2, 17]: 0%; pest or weed control at 250 g/ha [2, 18]: 15%; pest or weed control at 500 g/ha [2, 7]: 40%
CCNC(=O)c1cc(NC(=O)c2cn(C(C)(C)C)nc2CC)ccc1F [Compound 241, 1-(1,1-dimethylethyl)-3-ethyl-N-[3-[(ethylamino)carbonyl]-4-fluorophenyl]-1H-pyrazole-4-carboxamide]									plant injury at 125 g/ha [3, 13]: 0%; plant injury at 500 g/ha [3, 14]: 80%; pest or weed control at 62 g/ha [1, 4]: 0%; pest or weed control at 125 g/ha [1, 15]: 0%; pest or weed control at 250 g/ha [1, 16]: 55%; pest or weed control at 500 g/ha [1, 5]: 85%; pest or weed control at 62 g/ha [2, 6]: 0%; pest or weed control at 125 g/ha [2, 17]: 0%; pest or weed control at 250 g/ha [2, 18]: 0%; pest or weed control at 500 g/ha [2, 7]: 30%
CCn1nc(C(C)(C)C)cc1C(=O)Nc1cc(C(=O)OC(C)C)c(F)cc1F [Compound 248]									Rice plant response rating (0 to 100 scale) [3, 19]: 0; Plant response rating, Rice [3, 20]: 0
CCOC(=O)c1ccc(F)c(NC(=O)C2CC(C(C)(C)C)=NN2CC)c1 (stereo not shown) [Compound 267, ethyl 3-[[[3-(1,1-dimethylethyl)-1-ethyl-4,5-dihydro-1H-pyrazol-5-yl]carbonyl]amino]-4-fluorobenzoate]									plant injury at 125 g/ha [3, 13]: 20%; plant injury at 500 g/ha [3, 14]: 40%
CCn1nc(C(C)(C)C)cc1C(=O)Nc1cccc(OC(C)C)c1 [Compound 273]	75	75	20	60	70	70	75	40	Rice plant response rating (0 to 100 scale) [3, 19]: 0; Plant response rating, Rice [3, 20]: 40
CCn1nc(C(C)(C)C)cc1C(=O)Nc1cccc(C(=O)N2CC=CC2)c1 [Compound 286]	90	90	40	70	80	30	70	55	Rice plant response rating (0 to 100 scale) [3, 19]: 30; Plant response rating, Rice [3, 20]: 80
CCOC(=O)c1ccc(F)c(NC(=O)c2cc(C3(C)CC3)nn2CC)c1 [Compound 296]	75	85	15	50	65	75	75	25	Plant response rating, Rice [3, 20]: 40
CCc1nn(C(C)C)nc1C(=O)Nc1cccc(C(=O)N(C)C)c1 [Compound 358, N-[3-[(dimethylamino)carbonyl)phenyl]-5-ethyl-2-(1-methylethyl)-2H-1,2,3-triazole-4-carboxamide]									pest or weed control at 62 g/ha ([1]; 62 g ai/ha, scale 0 to 100, read-out: Sedge, Umbrella plant response rating): 15%; pest or weed control at 125 g/ha [1, 15]: 85%; pest or weed control at 250 g/ha [1, 16]: 85%; pest or weed control at 500 g/ha [1, 5]: 85%; pest or weed control at 62 g/ha [2, 6]: 0%; pest or weed control at 125 g/ha [2, 17]: 60%; pest or weed control at 250 g/ha [2, 18]: 75%; pest or weed control at 500 g/ha [2, 7]: 85%
C#CCNC(=O)c1cccc(NC(=O)c2nn(C(C)(C)C)nc2CC)c1 [Compound 380]	85	90	35	65	70	80	85	45	
C#CCOc1cccc(NC(=O)c2cc(C(C)(C)C)nn2CC)c1 [Compound 411]	80	85	15	40	45	60	75	25	
C=CCOc1cccc(NC(=O)c2cc(C(C)(C)C)nn2CC)c1 [Compound 412]	80	95	0	35	45	70	75	20	

From patent US20060069132A1, “Azolecarboxamide herbicides” (priority 2004, published 2006)
